For one experiment, the target named is Ba/F3-EGFR-WT cells (Homo sapiens, UniProt P00533). Description: Ba/F3 cell survival assay (Cell Titer-Glo), WT EGFR. The class given is cell-based. The conditions noted are these: without IL-3, with 10 ng/mL EGF, 48 h; read-out: BA/F3 (wild type) IC50. Summed up:
(§1)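 Ba/F3 cells stably expressing WT EGFR or EGFR-insSVD from retroviral transduction were grown without IL-3 on 10 ng/mL EGF. Cells were plated at 4000 cells/well, treated with compound for 48 h at 37° C, and viability was read by CellTiter-Glo luminescence.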

The next experiment has as its target Ba/F3-EGFR-insSVD cells (Homo sapiens, UniProt P00533, DUP768-770, cells depend on it). Description: Ba/F3 cell survival assay (Cell Titer-Glo), EGFR-insSVD. The class given is cell-based. To be noted: without IL-3, with 10 ng/mL EGF, 48 h; read-out: BA/F3 (insSVD) IC50. Summed up:
as §1

Another experiment has as its target T1, Bub1 (Homo sapiens, UniProt O43683).
T1 construct: catalytic domain of human Bub1 (amino acids 704-1085); His6 (N); made in house; host or cells: Hi5 insect cells
Description: Bub1 TR-FRET high ATP kinase assay. Type of experiment: biochemical. To be noted: Bub1 high ATP (2 mM) IC50 [mol/l], 2 mM ATP. Summed up: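 Recombinant His6-tagged human Bub1 catalytic domain (aa 704-1085), from Hi5 insect cells, phosphorylating a biotinylated peptide substrate at high ATP concentration. TR-FRET read-out.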

Experiment [1] relates to HCC-827 cells (EGFRex19del). Description: HCC-827 proliferation assay (Cell Titer Glo). Type of experiment: cell-based. To be noted: Homo sapiens, HCC827, 72 h. The procedure: Cellular Data Description (HCC-827 Cells, EGFRex19del)
(§2) HCC-827 cells were purchased from ATCC. 400 HCC-829 cells per well were seeded in growth medium (RPM11640, 10% FCS) in a 384-well plate (CORNING #3571). Seed reference plate for time zero determination on the same day. All plates were incubated overnight at 37° C. After 24 hours, test compound were added in 7-step dilution using HP Compound printer and incubated at 37° C. for 72 h. After 3 days, 30 μL/well CTG solution (Promega Cell Titer Glo solution; catalog # G755B and G756B) were added to each well, incubated for 30 minutes and the plate were read on PheraStar. Proliferation is calculated after subtracting time zero luminescence values from day 4 values and comparing to untreated wells.
The IC50 values were determined using the four parameter fit.

The subject of a further experiment is PC9 cells (EGFRex19del). Description: PC9 proliferation assay (Cell Titer Glo). The class given is cell-based. To be noted: Homo sapiens, PC-9, 72 h. The protocol: Cellular Data Description (PC9 Cells, EGFRex19del)
as §2, with “PC9” for “HCC-827”, “PC9” for “HCC-829”, “(DMEM,” for “(RPM11640,”, “wells. The IC50 values were determined using the four parameter fit.” for “wells.”

The target of experiment [2] is T2, EGFR with insertion of SVD between D770 and N771 (EGFR ins SVD) (Homo sapiens, UniProt P00533, DUP768-770).
T2 construct: made in house; host or cells: Sf9 insect cells (baculovirus)
T2 sequence (P00533 with tags, fused parts or gaps DUP768-770): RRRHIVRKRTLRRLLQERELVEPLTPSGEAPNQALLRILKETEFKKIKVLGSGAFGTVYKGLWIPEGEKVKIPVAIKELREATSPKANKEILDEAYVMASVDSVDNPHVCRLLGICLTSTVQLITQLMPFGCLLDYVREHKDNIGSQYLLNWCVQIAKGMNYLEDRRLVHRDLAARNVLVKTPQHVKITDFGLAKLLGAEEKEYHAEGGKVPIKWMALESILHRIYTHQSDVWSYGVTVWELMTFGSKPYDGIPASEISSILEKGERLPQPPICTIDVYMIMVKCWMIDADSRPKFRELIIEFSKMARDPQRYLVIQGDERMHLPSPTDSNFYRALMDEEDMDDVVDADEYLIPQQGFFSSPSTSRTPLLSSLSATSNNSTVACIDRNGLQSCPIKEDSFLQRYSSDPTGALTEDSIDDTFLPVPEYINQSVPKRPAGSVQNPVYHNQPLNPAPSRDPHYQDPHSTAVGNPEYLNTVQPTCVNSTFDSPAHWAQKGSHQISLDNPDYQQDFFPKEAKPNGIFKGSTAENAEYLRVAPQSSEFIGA
Description: Exon20-Mutant-EGFR(D770_N771insSVD) kinase assay (TR-FRET). Type of experiment: biochemical. The conditions noted are these: 2 mM ATP, several values per example where printed.

For experiment [3], the target named is Ba/F3-ERBB2-A775_G776insYVMA cells (Homo sapiens, UniProt P04626, DUP772-775, cells depend on it). Description: Ba/F3 cell survival assay, ERBB2 A775_G776insYVMA. To be noted: without IL-3, without EGF, 48 h; read-out: BA/F3 (ERBB2 A775_G776 insYVMA) IC50. The class given is cell-based. The protocol:
(§3) 293T cells from ATCC were transfected with pBABEpuro expression constructs for mutant EGFR (V769_D770insASV, D770_N771insNPG, N771_P772insH, H773_V774insNPH, E746_A750del, L858R, D770_N771insSVD C797S, E746_A750del C797S, L858R C797S, L861Q) or mutant ERBB2 (A775_G776insYVMA) and pCL-Eco packaging vector using Fugene-6 transfection reagent from Promega. Plates were incubated at 37° C. for 48 h. Retrovirus was harvested by filtering the media supernatant through a 0.45 μm filter.
(§4) Ba/F3 cells purchased from DSMZ were grown in RPMI+10% FBS+10 ng/mL IL-3 and infected with filtered retroviral supernatant at a 1:2 dilution. Polybrene was added to a concentration of 8 μg/mL, plates were spun for 90 min, and incubated overnight at 37° C. 2 μg/mL puromycin was added to the infected cells 24 h after infection and cells were continually grown in the presence of puromycin and 10 ng/mL IL-3. Following stably expressing Ba/F3 cell lines were generated: Ba/F3-EGFR-V769_D770insASV, Ba/F3-EGFR-D770_N771insNPG, Ba/F3-EGFR-N771_P772insH, Ba/F3-EGFR-H773_V774insNPH, Ba/F3-EGFR-E746_A750del, Ba/F3-EGFR-L858R, Ba/F3-EGFR-D770_N771 insSVD C797S, Ba/F3-EGFR-E746_A750del C797S, Ba/F3-EGFR-L858R C797S, Ba/F3-EGFR L861Q and Ba/F3-ERBB2-A775_G776insYVMA (Ba/F3-vector-control).
(§5) For cell survival assays, Ba/F3 cells were grown to a density of 1-2 million cells per mL, spun down and resuspended in media without IL-3, and replated at a concentration 200,000-500,000 cells per mL. The cells ectopically expressing WT EGFR plated with 10 ng/mL Millipore Culture grade EGF and Ba/F3 cells containing mutant EGFR or Mutant ERBB2 were cultivated without EGF. The cells ectopically expressing pBABEpuro empty vector were plated with 10 ng/mL IL-3.
(§6) 2 days later, cells were plated in 50 μL in a 384 well plate at a concentration of 4000 cells per well for cells assayed in the absence of IL-3 and 2000 cells per well for cells assayed in the presence of IL-3. 100 nL of compound was added to each well using a 100 nL pin head, and plates were incubated at 37° C. for 48 h.
(§7) Cell viability was measured by adding 20 μL of Cell Titer-Glo Luminescent Cell Viability Reagent diluted 1:3 in PBS. Plates were sealed with Perkin Elmer Top-Seal, inverted several times to mix, and immediately centrifuged at 1000 rpm for 2 min. Plates were incubated in low light conditions for 8-10 min and luminescence was measured.

The target of another experiment is Ba/F3-EGFR L861Q cells (Homo sapiens, UniProt P00533, L861Q, cells depend on it). Description: Ba/F3 cell survival assay, EGFR L861Q. Type of experiment: cell-based. The conditions noted are these: without IL-3, without EGF, 48 h; read-out: BA/F3 (EGFR L861Q) IC50. The procedure: as §3, §4, §5, §6, §7
Chain of Ba/F3-EGFR L861Q cells (P00533 whole entry L861Q): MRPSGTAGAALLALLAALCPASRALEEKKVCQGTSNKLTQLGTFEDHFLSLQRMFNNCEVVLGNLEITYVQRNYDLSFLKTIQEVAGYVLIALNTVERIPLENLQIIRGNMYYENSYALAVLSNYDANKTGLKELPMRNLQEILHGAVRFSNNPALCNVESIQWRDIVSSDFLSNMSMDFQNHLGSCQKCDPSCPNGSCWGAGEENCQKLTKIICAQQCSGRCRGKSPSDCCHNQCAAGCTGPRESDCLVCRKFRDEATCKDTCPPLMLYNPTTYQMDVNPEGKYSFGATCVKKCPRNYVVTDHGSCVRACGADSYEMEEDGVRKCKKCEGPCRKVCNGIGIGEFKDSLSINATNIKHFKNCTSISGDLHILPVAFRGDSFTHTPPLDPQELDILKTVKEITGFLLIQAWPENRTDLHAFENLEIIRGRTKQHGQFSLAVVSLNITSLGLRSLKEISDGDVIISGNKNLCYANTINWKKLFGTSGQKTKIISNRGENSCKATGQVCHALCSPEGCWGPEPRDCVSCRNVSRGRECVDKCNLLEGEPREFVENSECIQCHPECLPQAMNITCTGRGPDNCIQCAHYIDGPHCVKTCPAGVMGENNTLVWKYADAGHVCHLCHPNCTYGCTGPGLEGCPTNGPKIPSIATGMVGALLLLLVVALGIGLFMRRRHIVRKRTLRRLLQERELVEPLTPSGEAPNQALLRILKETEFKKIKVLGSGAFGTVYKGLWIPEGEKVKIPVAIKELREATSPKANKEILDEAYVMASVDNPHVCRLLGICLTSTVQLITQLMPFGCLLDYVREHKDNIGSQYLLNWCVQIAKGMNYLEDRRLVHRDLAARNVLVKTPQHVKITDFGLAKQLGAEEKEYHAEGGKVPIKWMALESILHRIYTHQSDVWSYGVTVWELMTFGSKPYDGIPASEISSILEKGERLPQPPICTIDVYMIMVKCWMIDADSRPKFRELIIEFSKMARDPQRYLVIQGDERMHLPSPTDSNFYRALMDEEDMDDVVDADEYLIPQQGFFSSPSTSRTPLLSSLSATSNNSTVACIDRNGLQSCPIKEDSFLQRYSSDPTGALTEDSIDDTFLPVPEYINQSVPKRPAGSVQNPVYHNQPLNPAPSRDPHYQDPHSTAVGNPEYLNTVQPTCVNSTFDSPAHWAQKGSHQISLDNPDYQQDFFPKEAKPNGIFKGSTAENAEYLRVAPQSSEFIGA
In experiment [4] the target is Ba/F3-EGFR-E746_A750del cells (Homo sapiens, UniProt P00533, DEL746-750, cells depend on it). Description: Ba/F3 cell survival assay, EGFR E746_A750del. The conditions noted are these: without IL-3, without EGF, 48 h; read-out: BA/F3 (EGFR E746_A750del) IC50. The class given is cell-based. The procedure: as §3, §4, §5, §6, §7
The next experiment concerns the target Ba/F3-EGFR-L858R cells (Homo sapiens, UniProt P00533, L858R, cells depend on it). Description: Ba/F3 cell survival assay, EGFR L858R. The class given is cell-based. The conditions noted are these: without IL-3, without EGF, 48 h; read-out: BA/F3 (EGFR L858R) IC50. The procedure:
as §3, §4, §5, §6, §7

2 compounds from patent US12679836B2, “4H-pyrrolo[3,2-c]pyridin-4-one compounds” (Bayer Aktiengesellschaft, priority 2019, dated 2026) can be followed below.

Molecules are shown by their SMILES. pIC50: −log10 of the molar value.

Chain of Ba/F3-EGFR-WT cells (P00533 whole entry, stated change not applied): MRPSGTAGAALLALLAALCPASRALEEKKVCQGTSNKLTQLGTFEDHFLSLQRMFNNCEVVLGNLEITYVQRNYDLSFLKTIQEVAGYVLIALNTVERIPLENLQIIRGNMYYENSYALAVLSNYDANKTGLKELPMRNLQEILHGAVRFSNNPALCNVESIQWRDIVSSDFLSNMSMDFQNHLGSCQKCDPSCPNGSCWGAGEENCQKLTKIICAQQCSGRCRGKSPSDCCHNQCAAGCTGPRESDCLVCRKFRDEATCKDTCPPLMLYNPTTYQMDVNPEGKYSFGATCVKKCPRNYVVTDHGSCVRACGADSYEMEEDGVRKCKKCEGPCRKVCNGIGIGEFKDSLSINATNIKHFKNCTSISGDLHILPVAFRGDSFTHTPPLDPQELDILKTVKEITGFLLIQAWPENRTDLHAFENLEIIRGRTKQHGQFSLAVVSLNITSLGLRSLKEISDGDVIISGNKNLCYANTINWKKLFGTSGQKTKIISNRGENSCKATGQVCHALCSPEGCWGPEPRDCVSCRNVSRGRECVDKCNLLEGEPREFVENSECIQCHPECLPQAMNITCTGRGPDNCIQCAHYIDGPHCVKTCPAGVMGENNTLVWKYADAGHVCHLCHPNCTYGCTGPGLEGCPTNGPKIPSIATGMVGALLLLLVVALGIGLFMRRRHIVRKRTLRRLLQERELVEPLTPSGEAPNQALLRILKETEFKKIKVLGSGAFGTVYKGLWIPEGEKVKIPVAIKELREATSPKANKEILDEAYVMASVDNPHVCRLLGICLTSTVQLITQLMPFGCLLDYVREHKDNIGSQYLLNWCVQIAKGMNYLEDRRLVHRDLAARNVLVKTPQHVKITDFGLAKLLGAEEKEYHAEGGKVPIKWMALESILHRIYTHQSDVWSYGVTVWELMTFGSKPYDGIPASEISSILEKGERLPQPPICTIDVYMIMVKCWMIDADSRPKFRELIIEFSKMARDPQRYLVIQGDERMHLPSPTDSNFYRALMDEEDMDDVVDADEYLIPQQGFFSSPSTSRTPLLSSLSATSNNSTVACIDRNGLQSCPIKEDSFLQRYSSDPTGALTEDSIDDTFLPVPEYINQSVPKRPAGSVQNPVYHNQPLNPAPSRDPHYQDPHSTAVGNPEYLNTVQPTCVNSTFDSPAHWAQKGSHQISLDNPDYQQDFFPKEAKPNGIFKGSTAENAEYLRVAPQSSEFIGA
T1 sequence (O43683 704-1085): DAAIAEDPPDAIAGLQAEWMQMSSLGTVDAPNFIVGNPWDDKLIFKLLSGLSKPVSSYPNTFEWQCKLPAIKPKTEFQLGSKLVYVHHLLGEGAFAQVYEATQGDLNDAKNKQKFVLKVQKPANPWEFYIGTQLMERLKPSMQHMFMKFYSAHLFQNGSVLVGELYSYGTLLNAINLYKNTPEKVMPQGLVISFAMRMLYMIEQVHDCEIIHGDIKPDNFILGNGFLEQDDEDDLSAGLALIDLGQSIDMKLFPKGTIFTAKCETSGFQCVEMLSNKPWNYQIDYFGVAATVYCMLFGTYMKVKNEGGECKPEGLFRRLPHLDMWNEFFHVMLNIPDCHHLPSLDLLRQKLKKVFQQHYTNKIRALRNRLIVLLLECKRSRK
Chain of Ba/F3-EGFR-insSVD cells (P00533 with tags, fused parts or gaps DUP768-770): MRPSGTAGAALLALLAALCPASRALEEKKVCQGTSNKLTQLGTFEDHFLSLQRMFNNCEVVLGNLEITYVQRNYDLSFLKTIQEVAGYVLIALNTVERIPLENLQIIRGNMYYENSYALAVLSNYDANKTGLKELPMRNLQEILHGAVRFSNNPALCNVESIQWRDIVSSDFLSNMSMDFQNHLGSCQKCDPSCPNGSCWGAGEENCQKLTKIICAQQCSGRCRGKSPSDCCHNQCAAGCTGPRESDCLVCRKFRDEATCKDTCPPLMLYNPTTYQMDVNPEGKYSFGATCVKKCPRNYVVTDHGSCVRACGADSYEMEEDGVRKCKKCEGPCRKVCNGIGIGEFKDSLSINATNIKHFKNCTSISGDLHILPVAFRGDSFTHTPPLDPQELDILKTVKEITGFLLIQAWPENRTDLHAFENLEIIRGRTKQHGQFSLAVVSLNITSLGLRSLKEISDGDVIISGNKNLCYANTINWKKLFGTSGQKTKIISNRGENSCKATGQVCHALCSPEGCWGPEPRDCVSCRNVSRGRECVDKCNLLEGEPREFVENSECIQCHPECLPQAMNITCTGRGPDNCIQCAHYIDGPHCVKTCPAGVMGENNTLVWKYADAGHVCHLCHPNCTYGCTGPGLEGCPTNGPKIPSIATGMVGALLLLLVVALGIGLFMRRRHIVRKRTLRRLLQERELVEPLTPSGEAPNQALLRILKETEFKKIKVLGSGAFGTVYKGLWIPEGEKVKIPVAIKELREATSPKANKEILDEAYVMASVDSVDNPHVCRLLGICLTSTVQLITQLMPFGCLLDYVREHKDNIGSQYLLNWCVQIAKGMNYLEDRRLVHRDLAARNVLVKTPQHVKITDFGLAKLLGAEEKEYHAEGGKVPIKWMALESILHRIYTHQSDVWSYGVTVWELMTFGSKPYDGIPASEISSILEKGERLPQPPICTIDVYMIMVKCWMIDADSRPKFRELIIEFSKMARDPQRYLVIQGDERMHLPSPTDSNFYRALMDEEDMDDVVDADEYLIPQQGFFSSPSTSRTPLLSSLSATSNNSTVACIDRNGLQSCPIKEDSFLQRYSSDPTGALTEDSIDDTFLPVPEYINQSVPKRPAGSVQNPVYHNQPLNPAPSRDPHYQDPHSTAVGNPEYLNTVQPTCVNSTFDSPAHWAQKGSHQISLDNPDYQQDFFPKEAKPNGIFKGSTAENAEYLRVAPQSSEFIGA

Regarding `COc1c(F)cccc1Nc1c(-c2ccncc2OCC2COCCO2)[nH]c2c1C(=O)NCC2` (single isomer, unassigned) [Example 6, 2-{3-[(1,4-dioxan-2-yl)methoxy]pyridin-4-yl}-3-(3-fluoro-2-methoxyanilino)-1,5,6,7-tetrahydro-4H-pyrrolo[3,2-c]pyridin-4-one], the GI50 is 785 nM on Ba/F3-EGFR-WT cells, 50.3 nM at Ba/F3-EGFR-insSVD cells and 31.8 nM in [3]. Also, the pIC50 against Bub1 was 5.20; in experiment [1], more than 8.52; with PC9 cells (EGFRex19del), 8.71. The “mutEGFR (D770_N771insSVD) kinase assay IC50” value in experiment [2] stood at 0.1 nM.
Take `CCc1c(Cl)cccc1Nc1c(-c2ccncc2OCC2CN(C)CCO2)[nH]c2c1C(=O)NCC2` (centres unmarked) [Example 29, 3-(3-chloro-2-ethylanilino)-2-{3-[(4-methylmorpholin-2-yl)methoxy]pyridin-4-yl}-1,5,6,7-tetrahydro-4H-pyrrolo[3,2-c]pyridin-4-one]: the GI50 is 621 nM at Ba/F3-EGFR-WT cells; 33.6 nM on Ba/F3-EGFR-insSVD cells; 16.2 nM on Ba/F3-EGFR L861Q cells; 0.332 nM in experiment [4]; 0.964 nM at Ba/F3-EGFR-L858R cells. At Bub1, this compound gave a pIC50 of 4.76. For the same compound, the “mutEGFR (D770_N771insSVD) kinase assay IC50” value in [2] worked out at 0.547 nM.
